Assay results as given in ChEMBL document CHEMBL1125048, “Affinity of 2-(tetrahydroisoquinolin-2-ylmethyl)- and 2-(isoindolin-2-ylmethyl)imidazolines for alpha-adrenoceptors. Differential affinity of imidazolines for the [3H]idazoxan-labeled alpha 2-adrenoceptor vs the [3H]yohimbine-labeled site” (J Med Chem, 1990).

What was measured:
[1] = target: T1, Adrenergic receptor alpha-1 (Rattus norvegicus, UniProt P15823+P23944+P43140); test: Binding affinity determined to alpha-1 adrenergic receptor of rat cerebral cortex using [3H]prazosin as radioligand; assay type: tissue-based
T1 sequence (P15823 whole entry): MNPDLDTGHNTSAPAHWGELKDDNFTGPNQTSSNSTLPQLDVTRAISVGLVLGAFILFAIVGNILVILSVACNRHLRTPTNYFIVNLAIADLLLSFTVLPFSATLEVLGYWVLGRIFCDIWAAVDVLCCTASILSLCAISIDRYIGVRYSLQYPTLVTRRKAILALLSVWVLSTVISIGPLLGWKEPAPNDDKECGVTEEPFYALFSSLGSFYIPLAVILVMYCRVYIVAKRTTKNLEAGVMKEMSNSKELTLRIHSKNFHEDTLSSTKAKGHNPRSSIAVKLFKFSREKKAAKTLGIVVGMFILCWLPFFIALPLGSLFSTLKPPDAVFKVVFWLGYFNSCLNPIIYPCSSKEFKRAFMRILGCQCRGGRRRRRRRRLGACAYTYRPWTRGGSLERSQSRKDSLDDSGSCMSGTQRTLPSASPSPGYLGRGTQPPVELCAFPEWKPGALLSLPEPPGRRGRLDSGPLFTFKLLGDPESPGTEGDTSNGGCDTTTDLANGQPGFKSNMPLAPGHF
T1 sequence (P23944 whole entry): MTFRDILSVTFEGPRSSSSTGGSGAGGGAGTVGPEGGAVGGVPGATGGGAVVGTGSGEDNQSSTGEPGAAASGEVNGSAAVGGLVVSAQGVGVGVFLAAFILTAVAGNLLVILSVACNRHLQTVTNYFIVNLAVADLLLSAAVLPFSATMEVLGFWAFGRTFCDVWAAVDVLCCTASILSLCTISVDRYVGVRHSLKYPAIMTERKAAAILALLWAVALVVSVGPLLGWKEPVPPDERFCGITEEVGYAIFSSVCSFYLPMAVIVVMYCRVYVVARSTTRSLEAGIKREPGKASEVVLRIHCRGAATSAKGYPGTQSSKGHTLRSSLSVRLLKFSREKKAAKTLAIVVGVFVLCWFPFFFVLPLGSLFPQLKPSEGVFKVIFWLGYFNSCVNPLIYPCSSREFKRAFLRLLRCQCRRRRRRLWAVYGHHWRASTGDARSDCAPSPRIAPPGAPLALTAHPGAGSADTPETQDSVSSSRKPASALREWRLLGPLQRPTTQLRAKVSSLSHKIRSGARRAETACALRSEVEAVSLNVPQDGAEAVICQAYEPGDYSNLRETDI
T1 sequence (P43140 whole entry): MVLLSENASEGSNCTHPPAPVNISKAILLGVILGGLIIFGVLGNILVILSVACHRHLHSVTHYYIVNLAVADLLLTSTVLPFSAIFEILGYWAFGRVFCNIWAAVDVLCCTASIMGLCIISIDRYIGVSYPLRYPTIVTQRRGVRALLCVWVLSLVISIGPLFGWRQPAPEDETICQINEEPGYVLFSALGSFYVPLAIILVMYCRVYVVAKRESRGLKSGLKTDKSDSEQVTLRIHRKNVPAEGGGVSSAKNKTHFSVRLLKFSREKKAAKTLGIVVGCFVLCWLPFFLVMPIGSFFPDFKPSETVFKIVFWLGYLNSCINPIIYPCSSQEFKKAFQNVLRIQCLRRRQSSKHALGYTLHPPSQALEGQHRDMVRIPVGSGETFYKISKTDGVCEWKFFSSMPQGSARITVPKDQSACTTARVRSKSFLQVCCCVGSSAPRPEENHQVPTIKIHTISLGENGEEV

[2] = target: T2, Adrenergic receptor alpha-2 (Rattus norvegicus, UniProt P22086+P19328+P22909); test: Binding affinity to alpha-2 adrenergic receptor of rat cerebral cortex assayed using [3H]yohimbine as radioligand; assay type: tissue-based
T2 sequence (P22086 whole entry): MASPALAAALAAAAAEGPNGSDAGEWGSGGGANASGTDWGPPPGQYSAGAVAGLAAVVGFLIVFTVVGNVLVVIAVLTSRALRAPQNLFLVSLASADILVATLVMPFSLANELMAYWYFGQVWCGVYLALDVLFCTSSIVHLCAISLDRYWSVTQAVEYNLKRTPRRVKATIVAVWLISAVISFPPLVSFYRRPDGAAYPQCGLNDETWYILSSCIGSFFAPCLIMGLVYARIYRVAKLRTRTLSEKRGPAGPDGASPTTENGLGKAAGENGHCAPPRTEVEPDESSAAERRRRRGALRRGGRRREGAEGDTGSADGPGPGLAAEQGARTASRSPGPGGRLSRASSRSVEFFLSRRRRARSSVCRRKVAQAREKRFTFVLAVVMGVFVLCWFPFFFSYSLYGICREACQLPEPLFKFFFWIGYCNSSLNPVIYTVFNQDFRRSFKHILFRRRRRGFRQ
T2 sequence (P19328 whole entry): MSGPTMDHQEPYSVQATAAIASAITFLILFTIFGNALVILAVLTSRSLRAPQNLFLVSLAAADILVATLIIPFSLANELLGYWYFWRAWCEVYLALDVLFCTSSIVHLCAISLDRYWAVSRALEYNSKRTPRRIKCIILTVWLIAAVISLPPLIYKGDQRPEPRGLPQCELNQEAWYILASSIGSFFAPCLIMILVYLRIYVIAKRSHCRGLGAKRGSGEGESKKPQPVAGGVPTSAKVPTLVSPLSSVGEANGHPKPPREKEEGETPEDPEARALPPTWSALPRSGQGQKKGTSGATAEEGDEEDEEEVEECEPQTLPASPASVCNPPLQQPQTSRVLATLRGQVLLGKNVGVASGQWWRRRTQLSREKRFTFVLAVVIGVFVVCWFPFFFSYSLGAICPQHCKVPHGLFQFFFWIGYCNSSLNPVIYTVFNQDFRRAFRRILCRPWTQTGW
T2 sequence (P22909 whole entry): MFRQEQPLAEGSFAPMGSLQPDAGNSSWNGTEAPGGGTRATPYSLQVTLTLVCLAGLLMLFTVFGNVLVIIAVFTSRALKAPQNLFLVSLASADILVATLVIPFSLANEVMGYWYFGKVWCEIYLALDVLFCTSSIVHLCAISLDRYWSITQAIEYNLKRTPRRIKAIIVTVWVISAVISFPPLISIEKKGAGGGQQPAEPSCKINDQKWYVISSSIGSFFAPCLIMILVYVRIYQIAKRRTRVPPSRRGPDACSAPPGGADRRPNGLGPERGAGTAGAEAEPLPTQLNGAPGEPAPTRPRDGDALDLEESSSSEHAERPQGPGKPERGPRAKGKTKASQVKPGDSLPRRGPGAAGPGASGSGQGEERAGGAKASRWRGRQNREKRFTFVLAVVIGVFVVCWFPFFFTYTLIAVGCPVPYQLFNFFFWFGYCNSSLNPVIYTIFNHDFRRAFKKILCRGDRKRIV

[3] = target: T2, Adrenergic receptor alpha-2; test: Binding affinity to the alpha-2 adrenergic receptor of rat cerebral cortex assayed using [3H]idazoxan as radioligand; assay type: tissue-based
[4] = target: T2, Adrenergic receptor alpha-2; test: Binding affinity was determined against alpha-2 adrenergic receptor of rat cerebral cortex using [3H]yohimbine as radioligand; assay type: tissue-based
[5] = target: T3, Adrenergic receptor alpha-2 (Rattus norvegicus) (UniProt P22086+P19328+P22909); test: Antilog of the [3H]-idazoxan pKi minus the [3H]yohimbine pKi was determined; assay type: protein assay
[6] = target: T2, Adrenergic receptor alpha-2; test: Binding affinity was determined against alpha-2 adrenergic receptor of rat cerebral cortex using [3H]idazoxan as radioligand; assay type: tissue-based
[7] = target: T3, Adrenergic receptor alpha-2 (Rattus norvegicus); test: Selectivity ratio is the antilog of the [3H]-yohimbine pKi minus the [3H]prazosin pKi; assay type: protein assay

Log Ki [1]	Log Ki [2]	Log Ki [3]	Log Ki [4]	Ratio [5]	Log Ki [6]	Selectivity ratio [7]	SMILES
< -5	-6.9	-7.38					CC1Cc2ccccc2CN1CC1=NCCN1.Cl.Cl (stereo not drawn)
-5.68	-7.65	-7.8					Cl.Cl.Clc1cccc2c1CCN(CC1=NCCN1)C2
< -5			-6.18	4	-6.83	15	Cl.Cl.Clc1ccc2c(c1)CCN(CC1=NCCN1)C2
-5.5	-7.25	-8.27					Cl.Cl.Fc1cccc2c1CN(CC1=NCCN1)CC2
-4.72	-7.07	-8					COc1cccc2c1CCN(CC1=NCCN1)C2.Cl.Cl
-5.2	-6.74	-7.62					CC1c2cccc(Cl)c2CCN1CC1=NCCN1.Cl.Cl (stereo not drawn)
< -5	-6.42	-7.67					Cl.Cl.Clc1ccc2c(c1Cl)CCN(CC1=NCCN1)C2
< -5	-5.97	-6.41					C=CCC1c2ccccc2CCN1CC1=NCCN1.Cl.Cl (stereo not drawn)
< -5	-6.52	-7.68					Cl.Cl.Clc1ccc2c(c1Cl)CN(CC1=NCCN1)CC2
-5.55	-7.48	-8.39					Cl.Cl.Fc1cccc2c1CCN(CC1=NCCN1)C2
< -5	-6.13	-7.14					Cl.Cl.O=[N+]([O-])c1cccc2c1CCN(CC1=NCCN1)C2
< -5	-6.29	-7.2					COc1cc2c(c(OC)c1)CN(CC1=NCCN1)CC2.Cl.Cl
< -5	-5.87	-6.13					COc1cc2c(cc1OC)CN(CC1=NCCN1)CC2.Cl.Cl
-5.14	-7.19	-7.32					CC1c2ccccc2CCN1CC1=NCCN1.Cl.Cl (stereo not drawn)
< -5	-6.16	-6.31					CCC1c2ccccc2CCN1CC1=NCCN1.Cl.Cl (stereo not drawn)
< -5	-6	-6.68					CC1(C)c2ccccc2CCN1CC1=NCCN1.Cl.Cl
-5.26	-6.57	-7.38					Cc1cccc2c1CCN(CC1=NCCN1)C2.Cl.Cl
-5.8			-6.67	36	-8.23	7	Cl.Cl.Clc1cccc2c1CN(CC1=NCCN1)CC2
-5.19			-7.71	0.2	-7.02	332	COc1ccc(OC)c2c1CCN(CC1=NCCN1)C2C.Cl.Cl (stereo not drawn)
< -5			-6.44	0.6	-6.24	28	COc1ccc2c(c1OC)CCN(CC1=NCCN1)C2.Cl.Cl
-4.8	-7.51	-7.8					COc1ccc(OC)c2c1CCN(CC1=NCCN1)C2.Cl.Cl
-5.43			-6.91	14	-8.07	30	Cl.Cl.c1ccc2c(c1)CN(CC1=NCCN1)C2
-5.5	-7.14	-8.12					Cl.Cl.Clc1ccc(Cl)c2c1CCN(CC1=NCCN1)C2
-5.67	-6.32	-7.77					Cl.Cl.c1ccc2c(c1)CCN(CC1=NCCN1)C2
< -5	-6.17	-6.99					Cl.Nc1cccc2c1CCN(CC1=NCCN1)C2
-6.05	-7.71	-8.38					Cl.Cl.Clc1cccc2c1CN(CC1=NCCN1)C2
